The source made the active and inactive calls.
Columns and labels:
HeLa = experiment: HeLa cell cytotoxicity, dose response, cytotoxicity control for MITF activator project, CellTiter-Glo luminescence, cherry-pick samples (AID 540259); type: functional, cell-based; conditions: Homo sapiens
BJ = experiment: cells; type: functional, cell-based; conditions: Homo sapiens
Cytochrome P450 2C19 = Cytochrome P450 2C19 (Homo sapiens, UniProt P33261); experiment: Cytochrome panel assay with activity outcomes. Panel member name: p450-cyp2c19 Compounds with AC50 equal or less than 10 uM are considered active; type: functional; conditions: read-out: AC50
[1] = cytotoxicity in HEK-293T cells, dose response, cytotoxicity control for TCR NF-kB inhibitor project, luminescence, T-cell screen hits (AID 489026); type: functional, cell-based;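 also: cells exposed to compound about 14 hours before the viability readout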
Cytochrome P450 2C9 = Cytochrome P450 2C9 (Homo sapiens, UniProt P11712)
[2] = target: Induced myeloid leukemia cell differentiation protein Mcl-1 (Homo sapiens, UniProt Q07820); type: functional
Large T antigen = Large T antigen (Simian virus 40, UniProt P03070); type: functional, Betapolyomavirus macacae;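 also: Confirmatory-stage PubChem screen for compounds that inhibit SV40 T antigen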
[3] = target: T1, Long-chain-fatty-acid--AMP ligase FadD28 (Mycobacterium tuberculosis, UniProt P9WQ59); experiment: Fluorescence polarization aasay to screen for inhibitors that compete for the binding of FadD28 to a bisubstrate Measured in Biochemical System Using Plate Reader - 2147-01_Inhibitor_Dose_CherryPick_Activity.; type: functional, Mycobacterium tuberculosis H37Rv
T1 sequence (P9WQ59 whole entry): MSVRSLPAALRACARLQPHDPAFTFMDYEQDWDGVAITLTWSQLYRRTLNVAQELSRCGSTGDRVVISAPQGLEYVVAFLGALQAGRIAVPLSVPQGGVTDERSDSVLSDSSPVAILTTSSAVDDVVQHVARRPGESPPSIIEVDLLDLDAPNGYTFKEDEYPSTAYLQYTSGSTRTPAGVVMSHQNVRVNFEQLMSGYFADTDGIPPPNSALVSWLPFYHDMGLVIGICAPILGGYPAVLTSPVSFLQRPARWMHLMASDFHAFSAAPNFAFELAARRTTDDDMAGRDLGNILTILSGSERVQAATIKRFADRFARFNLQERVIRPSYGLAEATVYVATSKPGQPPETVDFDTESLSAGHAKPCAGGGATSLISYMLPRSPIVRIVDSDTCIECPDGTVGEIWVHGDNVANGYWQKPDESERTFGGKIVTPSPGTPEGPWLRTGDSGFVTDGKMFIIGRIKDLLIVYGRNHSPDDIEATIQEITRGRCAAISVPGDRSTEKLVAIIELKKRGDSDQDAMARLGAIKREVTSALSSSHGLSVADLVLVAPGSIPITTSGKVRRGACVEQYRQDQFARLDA

Aminopeptidase N = target: T2, Aminopeptidase N (Plasmodium falciparum FcB1/Columbia, UniProt O96935); experiment: P. falciparum M1AAP inhibitors, biochemical, fluorogenic H-Leu-NHMec substrate, 1536-well (AID 1445); parameters: species or system Plasmodium falciparum 3D7, 3D7
T2 sequence (O96935 whole entry): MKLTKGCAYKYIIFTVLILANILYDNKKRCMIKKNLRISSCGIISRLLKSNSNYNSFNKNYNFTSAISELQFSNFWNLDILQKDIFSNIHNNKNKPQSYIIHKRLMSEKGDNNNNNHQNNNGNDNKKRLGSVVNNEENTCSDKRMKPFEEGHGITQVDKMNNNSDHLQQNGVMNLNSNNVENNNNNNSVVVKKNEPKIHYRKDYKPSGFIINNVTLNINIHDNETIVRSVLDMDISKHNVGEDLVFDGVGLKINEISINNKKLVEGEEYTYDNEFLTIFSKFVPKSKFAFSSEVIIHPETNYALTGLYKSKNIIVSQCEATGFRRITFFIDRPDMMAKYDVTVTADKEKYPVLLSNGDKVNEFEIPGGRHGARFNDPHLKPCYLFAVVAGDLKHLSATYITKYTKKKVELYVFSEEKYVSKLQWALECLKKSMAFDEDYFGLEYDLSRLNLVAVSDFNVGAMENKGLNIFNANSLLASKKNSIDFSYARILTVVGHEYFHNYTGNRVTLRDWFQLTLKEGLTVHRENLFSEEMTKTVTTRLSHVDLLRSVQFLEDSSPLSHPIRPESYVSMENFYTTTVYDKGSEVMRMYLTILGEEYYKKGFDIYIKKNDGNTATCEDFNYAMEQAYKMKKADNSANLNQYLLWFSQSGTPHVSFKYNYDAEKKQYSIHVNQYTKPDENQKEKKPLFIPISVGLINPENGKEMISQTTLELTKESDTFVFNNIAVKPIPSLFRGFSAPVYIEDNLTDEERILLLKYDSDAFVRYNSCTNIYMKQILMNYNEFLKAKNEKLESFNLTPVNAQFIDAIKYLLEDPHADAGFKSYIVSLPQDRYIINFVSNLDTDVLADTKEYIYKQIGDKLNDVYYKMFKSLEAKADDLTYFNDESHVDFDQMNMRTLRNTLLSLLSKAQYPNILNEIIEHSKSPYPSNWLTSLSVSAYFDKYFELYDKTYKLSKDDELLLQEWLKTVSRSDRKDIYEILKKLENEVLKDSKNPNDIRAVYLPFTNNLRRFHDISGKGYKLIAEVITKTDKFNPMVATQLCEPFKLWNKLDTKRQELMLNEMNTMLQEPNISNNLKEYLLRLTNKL

[4] = target: DNA dC->dU-editing enzyme APOBEC-3G (Homo sapiens, UniProt Q9HC16); type: functional;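 also: Dose-response counterscreen measuring inhibition of APOBEC3G DNA deaminase activity, run while confirming APOBEC3A inhibitors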
[5] = target: DNA dC->dU-editing enzyme APOBEC-3A (Homo sapiens, UniProt P31941); experiment: Dose Response confirmation of small molecule APOBEC3A DNA Deaminase Inhibitors via a fluorescence-based single-stranded DNA deaminase assay. [Related pubchem assays (depositor defined):AID493011, AID493024]; type: functional
[6] = target: T3, Carboxy-terminal domain RNA polymerase II polypeptide A small phosphatase 1 (Homo sapiens, UniProt Q9GZU7); experiment: inhibitors of CTDSP1, concentration-response testing, biochemical assay, absorbance-based, actives from ultra-high-throughput screening (AID 540297); type: functional
T3 sequence (Q9GZU7 whole entry): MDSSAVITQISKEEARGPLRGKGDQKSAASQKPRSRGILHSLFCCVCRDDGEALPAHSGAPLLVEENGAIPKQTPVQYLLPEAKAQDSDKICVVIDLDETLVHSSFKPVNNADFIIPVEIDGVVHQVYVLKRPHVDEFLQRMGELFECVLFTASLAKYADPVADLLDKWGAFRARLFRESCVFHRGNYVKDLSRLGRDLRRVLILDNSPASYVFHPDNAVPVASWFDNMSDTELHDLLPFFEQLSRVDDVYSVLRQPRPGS

[7] = cytotoxicity toward NIH3T3 fibroblasts, dose response, counter-screen, cell-based, ATP luminescence, mouse fibroblasts (AID 2010); type: functional;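 also: cells exposed to compound for about 90 hours before reading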
[8] = inhibitors of intracellular T. cruzi replication, confirmation, NIH3T3 host cells, beta-gal luminescence (AID 2044); type: functional, cell-based;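 also: intracellular parasites grown in NIH/3T3 mouse fibroblasts as host cells; luminescent beta-galactosidase reporter signal from transgenic T. cruzi replicating inside host cells; inhibitors lower the luminescence signal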
Cytochrome P450 1A2 = target: T4, Cytochrome P450 1A2 (Homo sapiens, UniProt P05177);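 also: PubChem cytochrome P450 panel assay, CYP1A2 panel member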
T4 sequence (P05177 whole entry): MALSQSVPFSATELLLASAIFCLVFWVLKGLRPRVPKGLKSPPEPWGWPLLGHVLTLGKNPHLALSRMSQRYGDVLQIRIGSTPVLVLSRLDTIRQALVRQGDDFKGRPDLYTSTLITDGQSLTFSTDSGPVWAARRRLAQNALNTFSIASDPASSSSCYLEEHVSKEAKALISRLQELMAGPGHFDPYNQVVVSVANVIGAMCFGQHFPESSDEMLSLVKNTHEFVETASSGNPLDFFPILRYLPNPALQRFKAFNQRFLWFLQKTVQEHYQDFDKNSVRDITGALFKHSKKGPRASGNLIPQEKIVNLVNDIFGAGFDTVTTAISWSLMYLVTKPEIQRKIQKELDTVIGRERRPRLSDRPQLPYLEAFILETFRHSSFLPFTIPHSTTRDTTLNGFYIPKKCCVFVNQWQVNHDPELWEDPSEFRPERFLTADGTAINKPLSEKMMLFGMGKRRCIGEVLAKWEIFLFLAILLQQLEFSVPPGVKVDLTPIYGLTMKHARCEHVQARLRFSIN

Cytochrome P450 3A4 = Cytochrome P450 3A4 (Homo sapiens, UniProt P08684);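 also: CYP3A4 tested as one member of a cytochrome P450 panel screen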
[9] = target: T5, Microphthalmia-associated transcription factor (Homo sapiens, UniProt O75030); experiment: TRPM1 promoter luciferase signal decrease, dose response, MITF inhibitor project, cell-based, SK-MEL-5, cherry-picked, set 3 (AID 493073); type: functional
T5 sequence (O75030 whole entry): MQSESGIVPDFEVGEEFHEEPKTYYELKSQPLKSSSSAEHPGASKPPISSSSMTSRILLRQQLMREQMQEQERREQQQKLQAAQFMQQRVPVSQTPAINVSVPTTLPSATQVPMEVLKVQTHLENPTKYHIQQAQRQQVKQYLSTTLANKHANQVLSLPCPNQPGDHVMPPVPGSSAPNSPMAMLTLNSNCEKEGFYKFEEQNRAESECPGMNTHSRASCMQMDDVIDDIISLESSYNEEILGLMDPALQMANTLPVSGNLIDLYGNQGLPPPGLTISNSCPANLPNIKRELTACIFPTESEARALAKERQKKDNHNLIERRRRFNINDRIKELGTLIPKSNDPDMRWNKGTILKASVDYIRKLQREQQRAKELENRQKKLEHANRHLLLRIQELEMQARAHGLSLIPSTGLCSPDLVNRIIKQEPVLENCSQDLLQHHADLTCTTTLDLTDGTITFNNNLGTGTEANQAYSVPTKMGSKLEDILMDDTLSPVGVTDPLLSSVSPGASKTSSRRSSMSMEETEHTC

[10] = test system: Streptococcus sp. 'group A'; experiment: growth inhibition of control SK(-) GAS strain, dose response, counter-screen for streptokinase expression inhibitor project, luminescence, kanamycin, BacTiterGlo, confirmation (AID 1900); type: functional, organism-based
cells [11] = type: functional, cell-based
Streptococcus = experiment: Group A Streptococcus viability loss, dose response, counter-screen for streptokinase expression inhibitor project, luminescence, BacTiterGlo (AID 1915); type: functional, organism-based;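 also: potency for reduction of bacterial viability or growth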
Nonstructural protein 1 = Nonstructural protein 1 (Influenza A virus, UniProt Q194T2); type: functional, Influenza A virus (A/California/07/2009(H1N1))
cells [12] = type: functional, cell-based; remark: listed apart in the source
Fatty acid synthase [13] = target: T6, Fatty acid synthase (Homo sapiens, UniProt P49327); experiment: FAS thioesterase domain inhibitors, dose response, biochemical, endpoint fluorescence intensity, uHTS hits (AID 624327); type: functional;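 also: fluorescence from hydrolysis of an O-methyl fluorescein acyl ester substrate by the enzyme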
Fatty acid synthase [14] = target: T6, Fatty acid synthase; experiment: FAS thioesterase domain inhibitors, dose response, biochemical, kinetic fluorescence intensity (AID 624326); type: functional;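 also: rate of fluorescence rise from hydrolysis of a fluorogenic O-methyl fluorescein ester substrate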

DNA dC->dU-editing enzyme APOBEC-3G, sequence (Q9HC16 whole entry): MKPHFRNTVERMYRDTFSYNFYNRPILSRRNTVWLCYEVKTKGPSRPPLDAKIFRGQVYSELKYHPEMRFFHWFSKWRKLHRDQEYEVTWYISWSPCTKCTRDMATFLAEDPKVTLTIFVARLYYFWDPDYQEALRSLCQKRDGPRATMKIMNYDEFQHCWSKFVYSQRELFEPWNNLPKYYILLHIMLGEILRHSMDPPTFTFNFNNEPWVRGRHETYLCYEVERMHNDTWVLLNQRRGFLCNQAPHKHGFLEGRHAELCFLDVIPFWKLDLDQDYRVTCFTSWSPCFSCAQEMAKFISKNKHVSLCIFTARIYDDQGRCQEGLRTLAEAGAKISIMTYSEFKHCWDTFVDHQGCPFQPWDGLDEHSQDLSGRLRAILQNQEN
DNA dC->dU-editing enzyme APOBEC-3A, sequence (P31941 whole entry, the tested form may be a part): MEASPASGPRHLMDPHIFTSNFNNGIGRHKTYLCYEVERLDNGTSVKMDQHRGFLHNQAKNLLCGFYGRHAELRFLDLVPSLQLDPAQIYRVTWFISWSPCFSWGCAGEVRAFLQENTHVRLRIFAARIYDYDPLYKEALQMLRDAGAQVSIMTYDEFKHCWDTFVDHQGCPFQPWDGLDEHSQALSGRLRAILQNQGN
Cytochrome P450 2C9, sequence (P11712 whole entry): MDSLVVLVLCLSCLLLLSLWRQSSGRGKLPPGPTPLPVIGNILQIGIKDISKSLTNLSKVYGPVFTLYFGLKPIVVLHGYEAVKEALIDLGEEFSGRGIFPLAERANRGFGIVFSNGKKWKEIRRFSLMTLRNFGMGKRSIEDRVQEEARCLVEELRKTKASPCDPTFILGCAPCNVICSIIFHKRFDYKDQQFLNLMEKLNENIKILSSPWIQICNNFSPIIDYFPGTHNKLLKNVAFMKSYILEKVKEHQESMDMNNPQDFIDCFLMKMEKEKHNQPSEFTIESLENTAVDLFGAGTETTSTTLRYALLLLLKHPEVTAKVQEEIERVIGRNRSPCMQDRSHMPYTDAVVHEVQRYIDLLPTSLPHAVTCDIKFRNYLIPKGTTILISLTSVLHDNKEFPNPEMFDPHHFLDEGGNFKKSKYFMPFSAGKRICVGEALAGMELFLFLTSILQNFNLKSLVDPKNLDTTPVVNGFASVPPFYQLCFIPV
T6 sequence (P49327 whole entry, the tested form may be a part): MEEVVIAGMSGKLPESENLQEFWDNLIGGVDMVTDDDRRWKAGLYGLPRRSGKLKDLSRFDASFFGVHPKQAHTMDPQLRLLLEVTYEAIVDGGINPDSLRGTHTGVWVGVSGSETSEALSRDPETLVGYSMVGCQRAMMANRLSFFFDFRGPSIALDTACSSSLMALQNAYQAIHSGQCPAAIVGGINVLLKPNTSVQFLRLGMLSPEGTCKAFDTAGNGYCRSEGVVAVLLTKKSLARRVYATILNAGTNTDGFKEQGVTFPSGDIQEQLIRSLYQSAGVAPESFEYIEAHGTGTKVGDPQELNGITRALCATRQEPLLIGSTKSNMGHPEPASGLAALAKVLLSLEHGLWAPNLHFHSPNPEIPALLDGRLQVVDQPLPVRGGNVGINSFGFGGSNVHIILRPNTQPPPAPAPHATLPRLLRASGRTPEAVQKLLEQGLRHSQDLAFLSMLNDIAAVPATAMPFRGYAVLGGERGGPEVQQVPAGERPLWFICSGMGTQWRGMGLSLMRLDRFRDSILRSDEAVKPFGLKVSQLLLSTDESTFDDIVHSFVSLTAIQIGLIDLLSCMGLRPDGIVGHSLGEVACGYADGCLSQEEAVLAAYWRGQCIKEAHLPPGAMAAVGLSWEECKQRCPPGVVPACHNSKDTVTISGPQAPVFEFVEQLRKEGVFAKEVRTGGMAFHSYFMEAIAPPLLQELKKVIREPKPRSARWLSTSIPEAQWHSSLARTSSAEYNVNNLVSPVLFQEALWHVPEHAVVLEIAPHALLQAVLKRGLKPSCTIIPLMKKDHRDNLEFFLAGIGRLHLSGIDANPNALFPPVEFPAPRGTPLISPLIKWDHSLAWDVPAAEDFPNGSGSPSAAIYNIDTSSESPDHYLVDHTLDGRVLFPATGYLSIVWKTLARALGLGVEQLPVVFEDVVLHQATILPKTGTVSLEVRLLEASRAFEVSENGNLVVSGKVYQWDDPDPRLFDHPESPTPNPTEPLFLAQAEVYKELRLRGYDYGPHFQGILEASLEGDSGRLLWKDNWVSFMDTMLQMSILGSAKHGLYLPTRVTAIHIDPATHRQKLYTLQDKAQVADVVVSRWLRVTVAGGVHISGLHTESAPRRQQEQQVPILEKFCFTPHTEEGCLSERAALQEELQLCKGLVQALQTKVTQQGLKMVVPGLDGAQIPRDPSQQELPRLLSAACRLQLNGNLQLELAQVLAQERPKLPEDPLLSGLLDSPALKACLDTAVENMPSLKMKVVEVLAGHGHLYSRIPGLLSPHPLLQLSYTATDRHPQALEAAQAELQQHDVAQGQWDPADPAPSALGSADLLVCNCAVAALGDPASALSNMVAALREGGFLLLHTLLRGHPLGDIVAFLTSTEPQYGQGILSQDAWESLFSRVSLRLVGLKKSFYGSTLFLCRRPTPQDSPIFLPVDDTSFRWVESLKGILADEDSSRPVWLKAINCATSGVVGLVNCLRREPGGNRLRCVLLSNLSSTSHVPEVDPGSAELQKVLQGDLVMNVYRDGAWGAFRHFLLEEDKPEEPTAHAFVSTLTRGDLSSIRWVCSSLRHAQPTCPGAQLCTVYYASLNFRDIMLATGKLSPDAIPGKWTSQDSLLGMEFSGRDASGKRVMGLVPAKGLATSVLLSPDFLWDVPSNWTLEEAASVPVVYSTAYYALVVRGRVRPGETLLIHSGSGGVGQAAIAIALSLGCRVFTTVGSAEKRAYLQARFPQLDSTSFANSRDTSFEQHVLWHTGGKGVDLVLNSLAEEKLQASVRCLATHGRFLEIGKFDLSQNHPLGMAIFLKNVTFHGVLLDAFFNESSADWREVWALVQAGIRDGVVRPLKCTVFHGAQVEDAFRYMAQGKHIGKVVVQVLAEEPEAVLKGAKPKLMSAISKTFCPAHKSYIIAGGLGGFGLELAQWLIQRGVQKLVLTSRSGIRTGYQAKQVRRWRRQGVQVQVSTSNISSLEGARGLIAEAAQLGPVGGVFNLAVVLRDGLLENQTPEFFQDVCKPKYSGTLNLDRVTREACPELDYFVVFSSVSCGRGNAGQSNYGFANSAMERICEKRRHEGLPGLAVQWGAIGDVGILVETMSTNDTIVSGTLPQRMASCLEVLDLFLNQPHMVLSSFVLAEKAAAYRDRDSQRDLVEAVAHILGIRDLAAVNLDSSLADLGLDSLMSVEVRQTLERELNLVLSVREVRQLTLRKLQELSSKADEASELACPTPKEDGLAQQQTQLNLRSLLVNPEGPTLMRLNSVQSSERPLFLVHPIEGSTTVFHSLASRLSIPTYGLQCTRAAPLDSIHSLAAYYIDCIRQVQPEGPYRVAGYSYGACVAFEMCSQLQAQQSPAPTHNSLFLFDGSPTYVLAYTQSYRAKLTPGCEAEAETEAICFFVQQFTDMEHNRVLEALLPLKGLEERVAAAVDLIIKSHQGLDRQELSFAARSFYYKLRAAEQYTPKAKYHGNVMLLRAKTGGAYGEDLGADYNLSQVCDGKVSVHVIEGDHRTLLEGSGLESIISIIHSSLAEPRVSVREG
Cytochrome P450 3A4, sequence (P08684 whole entry): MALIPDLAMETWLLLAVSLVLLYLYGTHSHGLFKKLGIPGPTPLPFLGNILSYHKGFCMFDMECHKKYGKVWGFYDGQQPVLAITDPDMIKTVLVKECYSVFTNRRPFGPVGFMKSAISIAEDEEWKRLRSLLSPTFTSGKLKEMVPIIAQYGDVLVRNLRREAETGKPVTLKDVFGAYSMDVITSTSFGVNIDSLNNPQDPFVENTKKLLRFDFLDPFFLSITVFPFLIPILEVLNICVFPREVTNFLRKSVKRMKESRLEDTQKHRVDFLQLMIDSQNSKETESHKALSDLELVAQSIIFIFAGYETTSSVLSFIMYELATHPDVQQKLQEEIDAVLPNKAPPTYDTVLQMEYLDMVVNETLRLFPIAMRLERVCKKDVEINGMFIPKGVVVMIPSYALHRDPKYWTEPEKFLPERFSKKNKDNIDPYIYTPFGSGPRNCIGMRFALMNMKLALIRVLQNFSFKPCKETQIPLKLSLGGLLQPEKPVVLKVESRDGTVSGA
Large T antigen, sequence (P03070 whole entry): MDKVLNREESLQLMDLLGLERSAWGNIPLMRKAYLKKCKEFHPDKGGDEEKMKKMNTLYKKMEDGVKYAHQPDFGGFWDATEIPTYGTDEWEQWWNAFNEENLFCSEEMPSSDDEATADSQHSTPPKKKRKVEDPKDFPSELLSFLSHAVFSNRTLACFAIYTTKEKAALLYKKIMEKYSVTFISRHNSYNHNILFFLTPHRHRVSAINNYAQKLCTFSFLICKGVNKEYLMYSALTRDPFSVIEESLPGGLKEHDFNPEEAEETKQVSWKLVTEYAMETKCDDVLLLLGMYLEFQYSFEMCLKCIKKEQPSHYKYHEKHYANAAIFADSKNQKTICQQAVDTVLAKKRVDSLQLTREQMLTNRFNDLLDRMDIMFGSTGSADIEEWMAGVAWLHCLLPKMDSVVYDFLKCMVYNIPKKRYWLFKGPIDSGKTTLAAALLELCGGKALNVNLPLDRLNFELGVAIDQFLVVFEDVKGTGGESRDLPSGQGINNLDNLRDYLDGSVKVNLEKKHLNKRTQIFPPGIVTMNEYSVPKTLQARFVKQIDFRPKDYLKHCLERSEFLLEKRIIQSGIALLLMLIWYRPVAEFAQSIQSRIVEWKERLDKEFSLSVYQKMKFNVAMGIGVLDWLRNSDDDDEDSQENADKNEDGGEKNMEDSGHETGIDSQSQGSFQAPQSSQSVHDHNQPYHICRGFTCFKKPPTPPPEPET
Nonstructural protein 1, sequence (Q194T2 whole entry): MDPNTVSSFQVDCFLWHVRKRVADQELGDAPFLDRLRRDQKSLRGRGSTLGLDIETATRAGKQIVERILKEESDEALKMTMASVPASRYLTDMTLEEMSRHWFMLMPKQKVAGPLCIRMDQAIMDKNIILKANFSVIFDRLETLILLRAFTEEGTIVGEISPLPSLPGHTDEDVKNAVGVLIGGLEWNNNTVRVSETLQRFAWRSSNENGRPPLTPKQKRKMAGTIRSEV

## Cc1ccccc1S(=O)(=O)Oc1ccc2ccc(O)cc2c1
HeLa
  AC50: 49.4 µM (active)

## Cc1ccc(Nc2nc(-c3c(C)nc4ncccn34)cs2)cc1
BJ
  EC50: 60.6 µM (active)
Cytochrome P450 2C19
  AC50: 31.6 nM (inconclusive)
[1]
  IC50: 36.5 µM (inactive)
Cytochrome P450 2C9
  AC50: inconclusive

## O=C1NN(c2ccccc2)C(=O)/C1=C\c1ccc(-c2cc([N+](=O)[O-])ccc2O)o1
[2]
  IC50: 10.7 µM (active)
Large T antigen
  IC50: 20.7 µM (active)
[3]
  AC50: 8.08 µM (active)

## Cc1cccc(NC(=O)N(Cc2cc3cc(C)ccc3[nH]c2=O)CC2COCCO2)c1 (stereo not given)
Aminopeptidase N
  IC50: 45.9 µM (active)

## Clc1ccc(-c2ccc(SCc3ccccn3)nn2)cc1
HeLa
  AC50: 50.7 µM (active)

## Cc1ccc(NC(=O)C(C)N2C(=O)c3ccccc3C2=O)cc1S(=O)(=O)N1CCOCC1 (stereo not given)
Aminopeptidase N
  IC50: 115 µM (active)

## Cc1ccc2oc(Nc3nc(C)c(C)c(C)n3)nc2c1
HeLa
  AC50: 192 µM (active)

## CC(C)CNC(=O)CCCc1c[nH]c2ccccc12.O=C(O)C(=O)O
Cytochrome P450 2C9
  AC50: inconclusive

## CSc1nnc(-c2ccncc2)n1CCCN1CCCC1=O
[4]
  IC50: 3.35 µM (active)
[5]
  IC50: 2.76 µM (active)

## C[n+]1ccc(C(=O)Nc2ccccc2Cl)cc1
[6]
  IC50: 7.68 µM (active)
[4]
  IC50: 1.72 µM (active)
[5]
  IC50: 2.01 µM (active)

## O=C(Nc1ncc(Cc2cc(Cl)ccc2Cl)s1)c1ccc([N+](=O)[O-])cc1
[7]
  EC50: > 30 µM (not active)
[8]
  EC50: 1.31 µM (active)
Cytochrome P450 1A2
  AC50: 5.62 µM (inconclusive)
Cytochrome P450 2C9
  AC50: inconclusive

## CS(=O)(=O)N1CCc2cc(C(=O)Nc3ccccc3Br)ccc21
HeLa
  AC50: > 350 µM (inactive)

## CCN(N=O)c1ccc(C=C2C=Cc3ccccc32)cc1
HeLa
  AC50: 68.9 µM (active)

## Cc1ccc(S(=O)(=O)N2CCC(C(=O)NCCCOC(C)C)CC2)cc1
Cytochrome P450 2C9
  AC50: inconclusive
Cytochrome P450 3A4
  AC50: 25.1 µM (inconclusive)

## CN1CCN(S(=O)(=O)c2cccc(C(=O)N(C)CC(=O)Nc3ccc(F)c(F)c3F)c2)CC1
[4]
  IC50: 5.4 µM (active)
[5]
  IC50: 3.94 µM (active)

## O=C(N/N=C/c1cc(Br)ccc1O)c1ccncc1
[9]
  AC50: 9.36 µM (active)
Aminopeptidase N
  IC50: 7.95 µM (active)
[10]
  EC50: 3 µM (active)
Cells [11]
  EC50: 17.7 µM (active)
Streptococcus
  EC50: 3.78 µM (active)
Nonstructural protein 1
  IC50: 5.51 µM (active)
Cells [12]
  EC50: > 350 µM (not active)

## C=CCOc1c(Br)cc(/C=N/Nc2ccc(C(=O)O)cc2)cc1OCC
Fatty acid synthase [13]
  IC50: 12.6 µM (active)
Fatty acid synthase [14]
  IC50: 10.5 µM (active)
[3]
  AC50: 62.7 µM (active)

## O=C(N/N=C/C1CCCCC1)c1ccccn1
Cytochrome P450 1A2
  AC50: 17.8 µM (inconclusive)
Cytochrome P450 2C9
  AC50: inconclusive

Source: ChEMBL document CHEMBL1201862, “PubChem BioAssay data set” (2004)
